Tests used:
mNG-lactC2 = target: T1, mNG-lactC2 (Bos taurus, UniProt Q95114); assay: equilibrium binding to liposomes, flow cytometry; conditions: 20:80 PS/PC liposomes, not free lipid; Kd is the protein concentration at half occupation; Hill coefficient ~1.2; HBS pH 7.4, no calcium; 1 h; read-out: Kd (apparent, Hill)
T1 construct: gene MFGE8; C2 domain (residues 270-427), N-terminal 6xHis and mNeonGreen fusion kept, pET-28a(+), E. coli Rosetta-Gami 2(DE3)pLysS, Ni-NTA
T1 sequence (Q95114 270-427): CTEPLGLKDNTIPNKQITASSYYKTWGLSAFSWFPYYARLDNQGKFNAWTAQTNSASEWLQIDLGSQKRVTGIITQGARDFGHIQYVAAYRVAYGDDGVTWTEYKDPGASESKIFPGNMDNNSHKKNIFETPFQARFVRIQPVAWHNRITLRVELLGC

axV-mNG = target: T2, axV-mNG (Homo sapiens, UniProt P08758); assay: equilibrium binding to liposomes, flow cytometry; conditions: 20:80 PS/PC liposomes, not free lipid; Kd is the protein concentration at half occupation; Hill coefficient ~1.2; HBS pH 7.4 with 2.5 mM CaCl2; 1 h; read-out: Kd (apparent, Hill)
T2 construct: gene ANXA5; N-terminal 6xHis, annexin V with C-terminal mNeonGreen fusion (also printed mNG-axV), tags kept, pET-28a(+), E. coli Rosetta-Gami 2(DE3)pLysS, Ni-NTA
T2 sequence (P08758 2-320): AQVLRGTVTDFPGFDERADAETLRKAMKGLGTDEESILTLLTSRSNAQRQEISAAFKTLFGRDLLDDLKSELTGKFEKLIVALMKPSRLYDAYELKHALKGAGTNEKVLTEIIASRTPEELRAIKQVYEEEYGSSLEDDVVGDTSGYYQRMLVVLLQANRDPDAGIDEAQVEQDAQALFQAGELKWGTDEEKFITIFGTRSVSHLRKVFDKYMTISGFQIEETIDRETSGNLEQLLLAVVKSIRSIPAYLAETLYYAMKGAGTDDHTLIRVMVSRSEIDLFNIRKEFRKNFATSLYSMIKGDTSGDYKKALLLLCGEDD

Kd (mNG-lactC2): 107 nM
Kd (axV-mNG): 10 nM
Substance: 1,2-diacyl-sn-glycero-3-phospho-L-serine [phosphatidylserine]
